Calls of active or inactive are those of the source. The calls are words filed in the database; no cut-off is given here.
Assays:
[1] = target: T1, Cyclic AMP-dependent transcription factor ATF-6 alpha (Rattus norvegicus) (UniProt G3V909); experiment: Activation of ATF6 in NRVM isolated from Sprague-Dawley rat assessed as increase in catalase expression at 10 uM using compound pre-activated with hydrogen peroxide for 8 hrs prior to NRVM treatment and measured after 16 hrs by SYBR green dye-based qRT-PCR analysis
T1 sequence (whole entry): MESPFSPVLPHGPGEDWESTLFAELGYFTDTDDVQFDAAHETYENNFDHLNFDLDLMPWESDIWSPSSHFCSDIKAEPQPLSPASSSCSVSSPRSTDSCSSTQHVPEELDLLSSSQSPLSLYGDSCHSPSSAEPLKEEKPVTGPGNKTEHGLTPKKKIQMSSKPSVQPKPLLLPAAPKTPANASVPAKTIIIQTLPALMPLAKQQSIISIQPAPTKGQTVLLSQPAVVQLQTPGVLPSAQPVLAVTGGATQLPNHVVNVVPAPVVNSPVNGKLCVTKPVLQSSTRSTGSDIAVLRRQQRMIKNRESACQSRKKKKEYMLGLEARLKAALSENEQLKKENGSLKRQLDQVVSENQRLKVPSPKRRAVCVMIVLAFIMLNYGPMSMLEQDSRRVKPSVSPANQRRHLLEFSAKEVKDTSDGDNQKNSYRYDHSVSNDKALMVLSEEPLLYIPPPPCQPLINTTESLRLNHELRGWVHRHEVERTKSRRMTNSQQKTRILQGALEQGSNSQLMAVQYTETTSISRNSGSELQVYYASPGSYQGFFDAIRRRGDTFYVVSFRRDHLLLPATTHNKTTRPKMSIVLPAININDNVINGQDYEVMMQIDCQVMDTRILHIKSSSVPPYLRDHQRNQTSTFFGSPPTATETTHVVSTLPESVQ

[2] = target: T1, Cyclic AMP-dependent transcription factor ATF-6 alpha (Rattus norvegicus); experiment: Activation of ATF6 in NRVM isolated from Sprague-Dawley rat assessed as increase in GRP78 expression at 10 uM using compound pre-activated with hydrogen peroxide for 8 hrs prior to NRVM treatment and measured after 16 hrs by SYBR green dye-based qRT-PCR analysis
[3] = target: T1, Cyclic AMP-dependent transcription factor ATF-6 alpha (Rattus norvegicus); experiment: Activation of ATF6 in NRVM isolated from Sprague-Dawley rat assessed as increase in catalase expression at 10 uM measured after 16 hrs by SYBR green dye-based qRT-PCR analysis
[4] = Drug metabolism assessed as intact compound incubated for 24 hrs in presence of NADP+ and absence of recombinant CYP1A2 by LC-MS analysis
[5] = target: T1, Cyclic AMP-dependent transcription factor ATF-6 alpha (Rattus norvegicus); experiment: Activation of ATF6 in NRVM isolated from Sprague-Dawley rat assessed as increase in GRP78 expression at 10 uM measured after 16 hrs by SYBR green dye-based qRT-PCR analysis
Rattus norvegicus = species on record: Rattus norvegicus; experiment: Cytoprotection against hydrogen peroxide-induced toxicity in NRVM isolated from Sprague-Dawley rat assessed as increase in cell viability at 10 uM pretreated for 24 hrs followed by hydrogen peroxide challenge measured after 8 hrs by MTT assay; format: functional
Cytochrome P450 1A2 [6] = target: T2, Cytochrome P450 1A2 (Homo sapiens, UniProt P05177); experiment: Drug metabolism assessed as recombinant CYP1A2 (unknown origin)-mediated oxidation incubated for 24 hrs in presence of NADP+ by LC-MS analysis; format: ADME; conditions: recombinant enzyme
T2 sequence (P05177 whole entry): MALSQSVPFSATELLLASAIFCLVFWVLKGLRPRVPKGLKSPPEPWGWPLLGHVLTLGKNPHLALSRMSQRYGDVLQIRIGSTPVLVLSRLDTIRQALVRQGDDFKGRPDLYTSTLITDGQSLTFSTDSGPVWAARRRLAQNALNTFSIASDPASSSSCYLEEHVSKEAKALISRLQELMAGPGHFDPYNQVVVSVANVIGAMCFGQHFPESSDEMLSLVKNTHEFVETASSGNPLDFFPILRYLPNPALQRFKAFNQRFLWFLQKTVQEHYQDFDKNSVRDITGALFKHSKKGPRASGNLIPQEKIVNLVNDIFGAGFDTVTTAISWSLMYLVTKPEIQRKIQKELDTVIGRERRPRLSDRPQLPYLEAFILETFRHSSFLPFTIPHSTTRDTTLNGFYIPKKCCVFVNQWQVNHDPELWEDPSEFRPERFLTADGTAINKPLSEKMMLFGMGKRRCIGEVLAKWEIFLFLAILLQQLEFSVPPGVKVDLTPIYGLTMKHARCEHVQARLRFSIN

[7] = target: T1, Cyclic AMP-dependent transcription factor ATF-6 alpha (Rattus norvegicus); experiment: Activation of ATF6 in simulated-ischemia-reperfusion NRVM isolated from Sprague-Dawley rat assessed as increase in cell viability by measuring media LDH content at 10 uM followed by ischemia simulation for 8 hrs and subsequent reperfusion and compound treatment for 24 hrs by LDH assay
[8] = target: T1, Cyclic AMP-dependent transcription factor ATF-6 alpha (Rattus norvegicus); experiment: Activation of ATF6 in simulated-ischemia-reperfusion NRVM isolated from Sprague-Dawley rat assessed as increase in cell viability by measuring media LDH content at 10 uM followed by ischemia simulation for 8 hrs and subsequent reperfusion and compound treatment for 24 hrs under normoxia condition by calcein-AM green dye based fluorescence microscopy
[9] = Stability of compound in HBS buffer at 1 mM at pH 7.3 and 37 degree C by HPLC or LC-MS analysis; format: physicochemical; conditions: pH 7.3, 1000 µM
[10] = Drug degradation in HBS buffer assessed as half life at 1 mM at pH 7.3 and 37 degree C by HPLC or LC-MS analysis; format: physicochemical
Cytochrome P450 1A2 [11] = target: T2, Cytochrome P450 1A2; experiment: Substrate activity at recombinant CYP1A2 (unknown origin) assessed as [4-[[4-methyl-2-(3-phenylpropanoylamino)phenoxy]methyl]phenyl]boronic acid formation incubated for 24 hrs in presence of NADP+ by LC-MS analysis; format: ADME; conditions: recombinant enzyme

Row | Compound | Activity [1] | Activity [2] | Activity [3] | Drug metabolism [4] | Activity [5] | Activity (Rattus norvegicus) | Drug metabolism (Cytochrome P450 1A2 [6]) | Activity [7] | Activity [8] | Stability [9] | half-life at 1000 µM [10] [days] | Drug metabolism (Cytochrome P450 1A2 [11])
1 | Cc1ccc(OCCc2ccc(B3OC(C)(C)C(C)(C)O3)cc2)c(NC(=O)CCc2ccccc2)c1 | inactive | inactive | – | – | – | – | – | – | – | – | – | –
2 | Cc1ccc(O)c(NC(=O)CCc2ccccc2)c1 | – | – | Active | Metabolite not detected | Active | Active | Metabolite_Detected | Active | Active | – | – | –
3 | Cc1ccc(OCc2ccc(B3OC(C)(C)C(C)(C)O3)cc2)c(NC(=O)CCc2ccccc2)c1 | Active | Active | – | – | – | Active | – | Active | Active | Stable | 25.8 | Metabolite_Notdetected
